# Measured values as given in ChEMBL document CHEMBL5661955, “ASAP - In vitro cytotoxicity” (2024).
# “And” between values parts separate entries of the source, which are not always exact repeats. Equal values may be shown once.
# Tests used:
# [1] = Functional metabolic assay to measure dose dependent changes in cell viability from drug treatment in Vero E6/TMPRSS2 cells (cotreated with P-gp inhibitor, Elacridar). […] Cytotoxicity is reported via measuring absorbance and analysis of MTT/MTS assays in uninfected cells. The assay has been performed by Icahn School of Medicine at Mount Sinai.; type: toxicity, cell-based, VeroE6/TMPRSS2; settings: chlorocebus sabaeus, p-gp concentration 2 uM
# [2] = Functional assay to measure dose dependent changes in cell viability from drug treatment in Vero E6 miRFP670 cells (cotreated with P-gp inhibitor, CP100356) that are infected with Dengue virus type 2 New Guinea C. […] Cytotoxicity is reported via via analysis of DAPI count using high-content imager. The assay has been performed by KU Leuven.; type: toxicity, cell-based, Vero C1008; settings: chlorocebus sabaeus, with CP100356 (P-gp inhibitor, concentration not stated); p-gp concentration 500 nM
# [3] = Vero E6/TMPRSS2 cells, with Elacridar (P-gp inhibitor, concentration not stated)
SMILES,CC10 ([1]; veroe6/tmprss2) [µM],CC50 [2] [µM],"CC50 [1, 3] [µM]",CC50 ([1]; veroe6/tmprss2)
COc1ccc(CCNc2nc(N3CCc4cc(OC)c(OC)cc4C3)c3cc(OC)c(OC)cc3n2)cc1OC,< 0.005,,,
C[C@@]1(O)[C@H](O)[C@@H](CO)O[C@H]1n1ccc(N)nc1=O,,> 200,,
CCCCCC(=O)N[C@H](C(=O)NCc1ccc(N)nc1)c1ccc(OCc2ccccc2)cc1,,3.63,,
N#Cc1cc(Cl)cc(C(=O)Nc2ccc3c(c2)CNC3)c1,> 50,,> 50,
Cc1ccc(S(=O)(=O)CNC(=O)[C@H](Nc2ccc3c(c2)CNC3)c2cc(Cl)cc3[nH]ncc23)cc1,> 50,,> 50,
O=C(Nc1ccc2c(c1)CNC2)c1cc(Cl)ccc1SC1CCCC1,41.64,,> 50,
N#Cc1cc(Cl)cc([C@H](C#N)Nc2ccc3c(c2)CNC3)c1,> 50,,> 50,
O=C(Nc1ccc2c(c1)CNC2)c1cc(Br)cc2[nH]c(C3CCOCC3)nc12,3.442,,27.8,
CCc1cc(Cl)cc(C(=O)Nc2ccc3c(c2)CNC3)c1,10.908,,> 50,
Cc1ccc2cc(Cl)cc(C(=O)Nc3ccc4c(c3)CNC4)c2n1,2.835,,31.3,
CN(C)C(=O)c1cc(CN)cc([C@@H]2C[C@H]2c2cc(Cl)cc(NC(=O)OCc3ccccc3)c2)c1,,4.09,,
O=C(Nc1cnc2c(c1)CNCC2)c1cc(Cl)cc2[nH]ncc12,> 50,,> 50,
CC(=Cc1cc(Cl)cc(NC(=O)OCc2ccccc2)c1)c1cccc(CN)c1,,0.906,,
O=C(NCC1CCOCC1)[C@H](Nc1ccc2c(c1)CNC2)c1cc(Cl)cc2[nH]ncc12,> 50,,> 50,
C=CC[C@H](Nc1cc(Cl)cc(NC(=O)OCc2ccccc2)c1)c1cccc(CN)c1,,3.34,,
CCOC(=O)[C@H]1[C@H](c2cc(Cl)cc(NC(=O)OCc3ccccc3)c2)[C@H]1c1cccc(-c2nnn[nH]2)c1,> 50,,> 50,
NCc1cccc([C@@H]2C[C@H]2c2cc(Cl)cc(NC(=O)OCc3ccccc3)c2)c1,> 50,,> 50,
N#C[C@H](Nc1cccc(-c2nn[nH]n2)c1)c1cc(Cl)cc(NC(=O)OCc2ccccc2)c1,> 50,,> 50,
NCc1cccc(NC(=O)C[C@H](NC(=O)OCc2ccccc2)c2ccc(OCc3ccccc3)c(Br)c2)c1,0.148,,38.4,
C=CC[C@H](Nc1cccc(-c2nn[nH]n2)c1)c1cc(Cl)cc2[nH]ncc12,> 5,,> 5,
NCc1cccc(NC(=O)c2cc(Cl)cc(CN)c2)c1,,,,> 50 µM
NCc1ccc2c(c1)[C@H]1OCCC[C@H]1[C@H](c1cc(Cl)cc(NC(=O)OCc3ccccc3)c1)N2,,5.8,,

SMILES,CC10 ([1]; veroe6/tmprss2) [µM],CC50 [2] [µM],"CC50 [1, 3] [µM]",CC50 ([1]; veroe6/tmprss2)
CC[C@H](Cc1nnn[nH]1)c1ccc(NC(=O)c2cc(Cl)cc(-n3cccc3)c2)cc1,> 50,,> 50,
O=S(=O)(Nc1cccc(-c2nnn[nH]2)c1)c1cc(Cl)cc(-c2ccccc2)c1,> 50,,> 50,
O=C(Nc1cc(Cl)cc([C@H]2C[C@@H]2c2cccc(-c3nnn[nH]3)c2)c1)OCc1ccccc1,,16.3,,
c1ccc2c(CN3CCC(c4cscn4)CC3)c[nH]c2c1,,,,> 50 µM
C[C@@H](N)c1cccc(NC(=O)[C@H]2[C@H]3CCCCC[C@H]3[C@H]2NC(=O)OCc2ccccc2)c1,0.044,,> 50,
CCOc1cccc(-c2ccc(S(=O)(=O)Nc3cc4c(cc3C(=O)O)CCC4)cc2)c1,5.671,,> 50,
O=C(Nc1cc(Cl)cc(C(=O)Nc2cccc([C@H]3CCNC3)c2)c1)OCc1ccccc1,2.776,,20.1,
O=C(O)Cn1ncc2cc(-c3cc(Cl)cc(NC(=O)OCc4ccccc4)c3)ccc21,,> 50,,
CCOC(=O)Nc1cc(Cl)cc(C(=O)Nc2cccc(CN)c2)c1,> 50,,> 50,
O=C(Nc1cc(Cl)cc(S(=O)(=O)Nc2cccc(-c3nn[nH]n3)c2)c1)OCc1ccccc1,> 50,,> 50,
NCc1cccc(CNC(=O)[C@@H](NC(=O)OCc2ccccc2)c2ccc(OCc3ccccc3)cc2)c1,,1.9,,
NCc1ccc(F)c(NC(=O)c2cc(Cl)cc(NC(=O)OCc3ccccc3)c2)c1,> 50,,> 50,
O=C(Nc1cc(Cl)cc(CNc2cccc(-c3nn[nH]n3)c2)c1)OCc1ccccc1,,> 50,,
O=C(O)CCc1ccc(NC(=O)c2cc(Cl)cc(NC(=O)OCc3ccccc3)c2)cc1,> 50,,> 50,
O=C(Nc1cc(Cl)cc(C(=O)Nc2cc(Br)cc(-c3nnn[nH]3)c2)c1)OCc1ccccc1,> 50,,> 50,
C=CC[C@H](Nc1cc(Cl)cc(NC(=O)OCc2ccccc2)c1)c1cccc(-c2nn[nH]n2)c1,0.105,,> 50,
NCCCc1ccnc(NC(=O)c2cc(Cl)cc(NC(=O)OCc3ccccc3)c2)c1,2.116,,16.2,
CC[C@H](Cc1nn[nH]n1)c1ccc(N[C@H](C(=O)NC)c2cc(Cl)cc(NC(=O)OCc3ccccc3)c2)cc1,> 50,,> 50,
O=C(Nc1cc(Cl)cc([C@H](C#CCO)Nc2ccc(-c3nn[nH]n3)cc2)c1)OCc1ccccc1,,> 50,,
CC(=Cc1cccc(CN)c1)c1cc(Cl)cc(NC(=O)OCc2ccccc2)c1,,3.26,,
NCc1cccc(NC(=O)c2cc(Cl)cc(N3CCCC3=O)c2)c1,,,,> 50 µM
CNC(=O)[C@H](Nc1cc(Cl)cc(NC(=O)OCc2ccccc2)c1)c1cccc(-c2nn[nH]n2)c1,> 50,,> 50,

SMILES,CC10 ([1]; veroe6/tmprss2) [µM],CC50 [2] [µM],"CC50 [1, 3] [µM]",CC50 ([1]; veroe6/tmprss2)
N[C@H]1CC[C@H](c2ccc(NC(=O)c3cc(Cl)cc(NC(=O)OCc4ccccc4)c3)cc2)C1,,2.84,,
NCc1cccc(NC(=O)c2cc(Cl)cc(NC(=O)OCc3ccccc3)c2)c1,,,,> 10 µM and 18.5 µM and 30.7 µM
CNC(=O)[C@H](Nc1cccc(CN)c1)c1cc(Cl)cc(NC(=O)OCc2ccccc2)c1,,23.7,,
CC[C@H](Cc1nnn[nH]1)c1ccc(NC(=O)[C@H]2[C@H]3CCCCC[C@H]3[C@H]2NC(=O)OCc2ccccc2)cc1,> 50,,> 50,
CC(=O)Nc1cc(Cl)cc(C(=O)Nc2cccc(CN)c2)c1,> 50,,> 50,
Clc1cccc([C@H](C#Cc2ccccc2)Nc2cccc(-c3nn[nH]n3)c2)c1,,6.84,,
NCc1cccc(NC(=O)[C@H]2[C@H]3CCCCC[C@H]3[C@H]2NC(=O)OCc2ccccc2)c1,0.166,,10.3,
O=C(Nc1cc(Cl)cc(C(=O)Nc2cc(-c3nnn[nH]3)ccc2F)c1)OCc1ccccc1,> 50,,> 50,
Cc1ccc(-c2nnn[nH]2)cc1NC(=O)c1cc(Cl)cc(NC(=O)OCc2ccccc2)c1,> 50,,> 50,
NCc1cccc(NC(=O)[C@@H](NC(=O)OCc2ccccc2)c2ccc(Br)c(Cl)c2)c1,0.556,,8.15,
NCc1ccc([C@H]2C[C@@H]2c2cc(Cl)cc(NC(=O)OCc3ccccc3)c2)cc1,,3.51,,
CCCC(=O)Nc1cc(Cl)cc(C(=O)Nc2cccc(CN)c2)c1,> 50,,> 50,
C=CC[C@H](Nc1cccc(-c2nn[nH]n2)c1)c1cc(Cl)cc(NC(=O)OCc2ccccc2)c1,,6.9,,
O=C(Nc1cc(Cl)cc(C(=O)Nc2ccc3c(c2)CCNC3)c1)OCc1ccccc1,,2.91,,
O=C(Nc1cc(Cl)cc(C(=O)Nc2ccc3c(c2)CNCCO3)c1)OCc1ccccc1,< 0.023,,> 50,
CNC(=O)c1cc(Cl)c(F)cc1NS(=O)(=O)c1ccc(Oc2ccccc2Cl)cc1,,5.65,,
CNC(=O)[C@H](Nc1cc(Cl)cc(NC(=O)OCc2ccccc2)c1)c1cccc(CN)c1,,24.2,,
CC[C@H](Cc1nnn[nH]1)c1ccc(NC(=O)c2cc(Cl)cc(C3CC3)c2)cc1,> 50,,> 50,
O=C(Nc1cc(Cl)cc(N[C@H](C#CCO)c2ccc(-c3nn[nH]n3)cc2)c1)OCc1ccccc1,> 50,,> 50,
N#C[C@H](Nc1cc(Cl)cc(NC(=O)OCc2ccccc2)c1)c1ccc(-c2nn[nH]n2)cc1,,13,,
NCc1cccc(NC(=O)c2cc(Cl)cc3c2CCC3)c1,,,,> 50 µM
O=C(Nc1cc(Cl)cc(C(=O)Nc2ccc([C@@H]3C[C@H]3C(=O)O)cc2)c1)OCc1ccccc1,,21.1,,
